Like-named read-outs stand apart in the source and are kept apart here.
How the values were obtained:
recombinant human AKR1C1 = biological target: T1, recombinant human AKR1C1 (Homo sapiens, UniProt Q04828); assay: Incubation of 3424 with AKR1C1 (2660 production, LC-MS/MS); format: biochemical
T1 construct: purchased Sigma

VCaP xenograft = assay: Castration-resistant prostate cancer VCaP xenograft model
Method: (§1) Death and observed clinical signs were recorded on the basis of the numbers of animals within each subset.

SNU-449 = assay: In vitro proliferation assay, liver cancer cell line SNU-449; format: cell-based; details: Homo sapiens, 96 hours of drug exposure, AKR1C3 protein high, read-out: 3424 IC50
Method: (§2) IC50 was calculated as described above.

recombinant human AKR1C3 = biological target: T2, recombinant human AKR1C3 (Homo sapiens, UniProt P42330); assay: Kinetic analysis of AKR1C3 towards various substrates (NADPH absorbance 340 nm); format: biochemical; details: substrate of AKR1C3, 25° C., triplicate
T2 construct: purchased Abcam (Cambridge, MA)
T2 sequence (P42330 1-323): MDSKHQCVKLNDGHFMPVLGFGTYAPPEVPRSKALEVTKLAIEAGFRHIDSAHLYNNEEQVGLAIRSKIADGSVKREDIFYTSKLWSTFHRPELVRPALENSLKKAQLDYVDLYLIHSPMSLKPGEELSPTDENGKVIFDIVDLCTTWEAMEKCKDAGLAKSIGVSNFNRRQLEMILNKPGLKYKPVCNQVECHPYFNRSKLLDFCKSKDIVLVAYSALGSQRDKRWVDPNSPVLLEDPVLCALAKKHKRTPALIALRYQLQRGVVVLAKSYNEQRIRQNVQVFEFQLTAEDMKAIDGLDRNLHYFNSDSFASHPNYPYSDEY
Method: The reaction was incubated at 25° C. and terminated at various time points by adding acetonitrile and methanol (at a ratio of 9 to 1) and subjected for LC-MS/MS analysis. For enzyme kinetic analysis, the activity was determined with a SpectraMax M2^e spectrophotometer (Molecular Devices, LLC, San Jose, CA) by measuring the decrease in absorbance of the NADPH at 340 nm (E=6270 M^−1 cm^−1). After the initiation of the reaction by addition of substrates, the reactions were monitored at 30 s intervals at 25° C. The non-substrate reaction rate was also monitored as background and its slope was used to determine the initial velocity of the reaction. The kinetic data reported were the average of triplicate measurements.

A498 xenograft = test system: A498 xenograft
Method: as §1

SNU-16 xenograft = test system: SNU-16 xenograft
Method: as §1

LU2505 PDX = assay: Lung cancer PDX model LU2505 (higher AKR1C3); format: in vivo, mice
Method: (§3) Anti-tumor activity of 3424 in PDX models was assessed at CrownBio Bioscience (Beijing, China) Inc. using female BALB/c nude mice (6-7 weeks old, Beijing Anikeeper Biotech Co., Ltd, Beijing, China). Tumor fragments (PA1280, GA6201, LU2057 and LU2505) from stock mice inoculated with selected primary human cancer tissues (pancreatic, gastric cancer, and lung) were harvested and used for inoculation into BALB/c nude mice. Each mouse was inoculated subcutaneously for tumor development. Mice were allocated randomly into experimental groups when the average tumor size reached ˜100 mm^3) by using StudyDirector™ Ver 3.1.399.19 (Studylog Systems, Inc., S. San Francisco, CA, USA). Prodrug 3424 was administered IV at the indicated doses with a regimen of Q7D×3. Each group consisted of 5-6 mice. The grouping day was denoted as Day 0. Prodrug 3424 was administrated to the tumor-bearing mice from Day 0 through Days as indicated for each study.

GA6201 PDX = assay: Gastric cancer PDX model GA6201; format: in vivo, mice
Method: as §3

NCIH1755 = assay: In vitro proliferation assay, NSCLC cell line NCIH1755; format: cell-based; details: Homo sapiens, NCI-H1755, 72 hours of drug exposure, read-out: 3424 IC50
Method: as §2

SNU-475 = assay: In vitro proliferation assay, liver cancer cell line SNU-475; format: cell-based; details: Homo sapiens, 96 hours of drug exposure, AKR1C3 protein high, read-out: 3424 IC50
Method: as §2

LU2057 PDX = assay: Lung cancer PDX model LU2057 (low AKR1C3); format: in vivo, mice
Method: as §3

NCI-H1563 = assay: In vitro proliferation assay, NSCLC cell line NCI-H1563; format: cell-based; details: Homo sapiens, 72 hours of drug exposure, read-out: 3424 IC50
Method: as §2

SNU-398 = assay: In vitro proliferation assay, liver cancer cell line SNU-398; format: cell-based; details: Homo sapiens, 96 hours of drug exposure, AKR1C3 protein Low, read-out: 3424 IC50
Method: as §2

PLC/PRF/5 = assay: In vitro proliferation assay, liver cancer cell line PLC/PRF/5; format: cell-based; details: Homo sapiens, 96 hours of drug exposure, AKR1C3 protein Medium, read-out: 3424 IC50
Method: as §2

SK-HEP-1 = assay: In vitro proliferation assay, liver cancer cell line SK-HEP-1; format: cell-based; details: Homo sapiens, SK-HEP1, 96 hours of drug exposure, AKR1C3 protein Low, read-out: 3424 IC50
Method: as §2

NCI-H1944 = assay: In vitro proliferation assay, NSCLC cell line NCI-H1944; format: cell-based; details: Homo sapiens, 72 hours of drug exposure, read-out: 3424 IC50
Method: as §2

C3A = assay: In vitro proliferation assay, liver cancer cell line C3A; format: cell-based; details: Homo sapiens, 96 hours of drug exposure, AKR1C3 protein high, read-out: 3424 IC50
Method: as §2

CAL12T = assay: In vitro proliferation assay, NSCLC cell line CAL12T; format: cell-based; details: Homo sapiens, CAL-12T, 72 hours of drug exposure, read-out: 3424 IC50
Method: as §2

[1] = 3424 2.5 mg/kg weekly IV for 4 doses

T1 sequence (Q04828 whole entry): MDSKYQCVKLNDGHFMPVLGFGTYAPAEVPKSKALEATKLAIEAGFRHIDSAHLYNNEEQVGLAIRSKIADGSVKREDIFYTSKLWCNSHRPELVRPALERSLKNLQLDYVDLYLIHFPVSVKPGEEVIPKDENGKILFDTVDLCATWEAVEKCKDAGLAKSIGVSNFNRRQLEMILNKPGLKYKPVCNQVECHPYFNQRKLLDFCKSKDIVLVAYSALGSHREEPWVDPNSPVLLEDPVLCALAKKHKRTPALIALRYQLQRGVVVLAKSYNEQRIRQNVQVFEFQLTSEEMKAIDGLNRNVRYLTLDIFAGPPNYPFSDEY

For `C[C@H](OP(=O)(N1CC1)N1CC1)c1ccc([N+](=O)[O-])c(Oc2cccc(C(=O)N(C)C)c2)c1` [Compound 3424, (S)-1-(3-(3-N,N-dimethylaminocarbonyl)phenoxyl-4-mtrophenyl)-1-ethyl-N,N′-bis(ethylene)phosphoramidate], the “metabolism by AKR1C1” value (recombinant human AKR1C1) was “not metabolized”, the “2660 Concentration” value (recombinant human AKR1C1; 3424 concentration 50 μM, incubation with AKR1C1, BQL: below quantification limit (0.25 ng/mL)) was “BQL” and the TGI (VCaP xenograft; 3424 5 mg/kg weekly IV for 5 doses, castrated male BALB/c nude mice) was 148%. For the same compound, the “tolerability / body weight loss during treatment” value (VCaP xenograft; VCaP model, data not shown) was “no significant body weight loss”, the IC50 (SNU-449) was 45 nM and the Kcat (recombinant human AKR1C3) was 0.0107 ± 0.00017 s⁻¹. The Km (recombinant human AKR1C3; read-out: Km) was 12.6 ± 0.28 µM, the TGI (A498 xenograft; [1]) was 73% and the “tolerability / body weight loss during treatment” value (A498 xenograft; A498 model, data not shown) was “no significant body weight loss”. For the same compound, the TGI (SNU-16 xenograft; [1]) was 87.8%, the TGI (SNU-16 xenograft; 3424 5 mg/kg weekly IV for 4 doses) was 96.2% and the “tolerability / body weight loss during treatment” value (SNU-16 xenograft; SNU-16 model, data not shown) was “no significant body weight loss”. For the same compound, the TGI (LU2505 PDX; 3424 1.25 mg/kg i.v. Q7D × 3) was 105.0%, the TGI (LU2505 PDX; 3424 2.5 mg/kg i.v. Q7D × 3) was 105.2% and the TGI (LU2505 PDX; 3424 5 mg/kg i.v. Q7D × 3) was 105.2%. The “tolerability / body weight loss” value (LU2505 PDX; LU2505, all tested doses) was “no body weight loss”, the TGI (GA6201 PDX; 3424 5 mg/kg i.v. Q7D × 3) was 110% and the “mice remaining tumor free” value (GA6201 PDX; 3424 5 mg/kg, at the end of the study) was 60%. For the same compound, the “tolerability / body weight loss” value (GA6201 PDX; GA6201, all tested doses) was “no body weight loss”, the IC50 (NCIH1755) was 8.2 nM and the IC50 (SNU-475) was 15 nM. The TGI (LU2057 PDX; 3424 2.5 mg/kg i.v. Q7D × 3) was −20.9%, the “tolerability / body weight loss” value (LU2057 PDX; LU2057, all tested doses) was “no body weight loss” and the IC50 (NCI-H1563) was 2.5 nM. The IC50 (SNU-398) was over 1000 nM, the IC50 (PLC/PRF/5) was 167 nM and the IC50 (SK-HEP-1) was over 1000 nM. It also gave an IC50 (NCI-H1944) of 2.3 nM, an IC50 (C3A) of 5 nM and an IC50 (CAL12T) of 29.1 nM.

— patent US20240316079A1, “USE OF AKR1C3-ACTIVATED COMPOUND” (OBI PHARMA, INC., priority 2021, published 2024)
